Key:
Type in all cases: physicochemical
[1] = Accelerated stability in a stability box (40° C./75% RH); conditions: 15 days acceleration
[2] = Hygroscopicity test by dynamic moisture sorption (DVS); conditions: for adsorbed moisture: 80% RH, 25° C., DVS
Method: DVS analysis: all dynamic moisture sorption analysis […] of this experiment were determined by DVS advantage model sorption instrument, British SMS company, relative humidity range: 0-95%, temperature: 25° C. Commercially available paeoniflorin (Aladdin Company, batch number K2011169, purity ≥98%) was used as the amorphous powder, and its X-ray powder diffraction comparison diagram with the crystal form A of the present invention is shown in FIG. 6, and the hygroscopicity analysis comparison diagram of paeoniflorin and the crystal form A of the present invention is shown in FIG. 7. […] The hygroscopicity of crystal form B was analyzed using DVS advantage adsorption instrument of SMS company in the UK, the amorphous form adsorbed 11.1% of water at 80% RH, showing hygroscopicity; Paeoniflorin crystal form B of the present invention adsorbed 2.22% of water at 80% RH, but its hygroscopicity was obviously different from that of crystal form A.

[3] = Solubility in water
Method: The crystal form A has good water solubility, the solubility in water is more than 20 mg/mL, and the crystal form A is easy to dissolve.

[4] = Thermal stability by TG and DSC
Method: DSC analysis: the method adopts a DSC 8500 model differential scanning calorimeter of PerkinElmer company, US. for detection, the atmosphere is nitrogen, and the heating speed is 10° C./min.
TG analysis: the method adopts a thermogravimetric analyzer Netzsch TG 209F3 model of German […] company, temperature range: 30-400° C., scan rate: 10° C./min, purge gas: 25 mL/min.

Compound | physical stability (conversion to amorphous or other forms) [1] | adsorbed moisture ([2]; listed as paeoniflorin monohydrate crystal form A) [%] | hygroscopicity (qualitative) ([2]; no wet agglomeration, powder has good fluidity) | solubility [3] [mg/mL] | phase transition and weight loss temperatures [4] | adsorbed moisture [2] [%]
CC12CC3(O)OC(O1)C1(COC(=O)c4ccccc4)C3CC21OC1OC(CO)C(O)C(O)C1O (stereo not shown) [crystal form A] | did not convert to amorphous or other forms | 0.3 | small hygroscopicity | > 20 | above 100 °C | –
CC12CC3(O)OC(O1)C1(COC(=O)c4ccccc4)C3CC21OC1OC(CO)C(O)C(O)C1O (stereo not shown) [amorphous form, reference compound] | – | – | – | – | – | 11.1
CC12CC3(O)OC(O1)C1(COC(=O)c4ccccc4)C3CC21OC1OC(CO)C(O)C(O)C1O (stereo not shown) [Paeoniflorin crystal form B] | – | – | – | – | – | 2.22

Reference: patent US20250340581A1, “PAEONIFLORIN MONOHYDRATE CRYSTAL FORM A, PREPARATION METHOD THEREFOR, AND USE THEREOF” (SHANGHAI INSTITUTE OF MATERIA MEDICA.CHINESE ACADEMY OF …, priority 2023, published 2025)
